Experimental data taken from patent US20230381343A1, “Treatment for Intraocular Pressure Related Disorders” (Mayo Foundation for Medical Education and Research, priority 2021, published 2023).

Legend:
[1] = one eye, IOP 33 mmHg at 12 months after plaque
From the text: Records were reviewed for patient demographics, clinical tumor features, treatment parameters, and outcomes, with attention to IOP and optic disc features.

[2] = tested on: mouse model of experimental autoimmune uveitis; assay: Experimental autoimmune uveitis (EAU), topical treatment; format: in vivo; conditions: daily topical
Description: Following induction of experimental autoimmune uveitis (EAU), mice were treated daily with topical latanoprost free acid (LFA; 100 μM) or STC-1 (0.5 μg/mL) in one eye and vehicle in the other eye. At day 18, OCT was performed and retinal thickness was measured in a masked manner. At day 21, eyes were enucleated and processed for hematoxylin and eosin (H&E) staining.
Experimental autoimmune uveitis (EAU) was induced in the C57B/6 mouse with a protocol described elsewhere (see, e.g., Avichezer et al., Invest. Ophthalmol. Vis. Sci., 41(1):127-31 (2004)). Briefly, human interphotoreceptor retinoid binding protein (IRBP) in complete Freund's adjuvant was injected subcutaneously and pertussis toxin was injected intraperitoneally as an additional immune stimulus.

C57BL/6J mice = assay: Aqueous outflow parameters by constant flow infusion; format: in vivo, mouse; conditions: 6 weeks post intracameral injection, treatment day 5 for topical
From the text: To determine the effects of ssAAV2-smCBA-STC-1-FLAG on parameters of aqueous outflow, 3-month old C57BL/6J mice were separately treated with the following: 1) intracameral ssAAV2-smCB A-STC-1-FLAG (n=5), 2) intracameral ssAAV2-smCBA-GFP (n=5), 3) topical recombinant human STC-1 (n=4; Biovender Research and Diagnostic Products, Czech Republic) (Roddy et al., Invest Ophthalmol Vis Sci. 58:2715-24(2017); Roddy et al., PLoS ONE. 15(2020)), 4) topical latanoprost free acid (LFA; n=5; Cayman Chemical, Ann Arbor, MI), or 5) untreated mice (n=4). Mice that received topical treatments were treated with once daily topical doses of STC-1 (5 μl of 0.5 μg/μl) or LFA (10^-4 M) for 5 days prior to aqueous outflow experiments. Mice that received intracameral injections were treated 6 weeks prior to aqueous outflow measurements. Aqueous outflow was assessed using the protocols previously established (Millar et al., Invest Ophthalmol Vis Sci. 52:685-94(2011); Roy Chowdhury et al., Invest Ophthalmol Vis Sci. 58:5731-42(2017)). Briefly, a 33-g needle was used to cannulate the anterior chamber of anesthetized mice. The needle was connected to a flow-through pressure transducer (World Precision Instruments, Sarasota, FL) that was also connected to an SP101i microdialysis infusion pump (World Precision Instruments) and an open-ended, variable-height, raised reservoir manometer. Episcleral venous pressure was obtained by visualizing the reflux of blood into Schlemm's canal by direct ophthalmoscopy as the reservoir was lowered. Outflow facility was determined by slowly increasing the flow rate with the infusion pump and recording the pressure. Uveoscleral outflow was calculated when the inflow is presumed to be zero immediately after animal sacrifice. Aqueous humor formation was then estimated by using the modified Goldmann equation, i.e. aqueous formation rate=[outflow facility X (IOP−episcleral venous pressure)]+uveoscleral outflow as previously described (Millar et al., Invest Ophthalmol Vis Sci. 52:685-94(2011)). To validate the calculated IOP values based on the Goldman equation, IOP was also assessed with a handheld rebound tonometer. All data were recorded and analyzed using LabScribe software (World Precision Instruments).

wild-type C57BL/6J mice = assay: Steroid-induced (dexamethasone) ocular hypertension model, topical treatment; format: in vivo, mouse
From the text: All studies were approved by the Mayo Clinic (Rochester, MN) IACUC and adhered to ARVO guidelines. […] In the final phase of the experiment (experimental weeks 7-9, treatment weeks 4-6), dexamethasone-injected animals in Group 2 continued to receive topical STC-1 while treatment was halted in the vehicle-injected fellow eye for a medication wash-out period (FIG. 22). For statistical purposes, the final week of each condition was selected (i.e. weeks 3, 6, and 9) for analysis. To determine if a difference in IOP was present among groups at week 6 and 9, a Kruskal-Wallis test was performed. An unpaired t-test was used to directly compare the two groups. Values for all statistical tests were considered significant at P<0.05.
For both models histologic analysis was performed.

Compound: dorzolamide hydrochloride-timolol maleate
- Response of IOP spike to topical therapy [1]: responded

Compound: O=C(O)CCC/C=C\C[C@@H]1[C@@H](CC[C@@H](O)CCc2ccccc2)[C@H](O)C[C@@H]1O [LFA, latanoprost free acid]
- Retinal thickness by OCT vs vehicle control eye ([2]; day 18): no significant difference in retinal thickness
- Vitreous inflammatory cells (H&E) ([2]; day 21): trend toward greater vitreous cell
- Episcleral venous pressure (C57BL/6J mice): 10.0 ± 2.4 mmHg
- Outflow facility (C57BL/6J mice): 0.046 ± 0.02 μL/min/mmHg
- Uveoscleral outflow (C57BL/6J mice): 0.046 ± 0.02 µL/min
- Calculated IOP (C57BL/6J mice; Goldmann equation): 14.0 ± 1.9 mmHg
- Measured IOP (C57BL/6J mice; rebound tonometer): 13.2 ± 0.9 mmHg

Compound: CC(=O)OCC(=O)[C@@]1(O)[C@H](C)C[C@H]2[C@@H]3CCC4=CC(=O)C=C[C@]4(C)[C@@]3(F)[C@@H](O)C[C@@]21C [dexamethasone, dexamethasone acetate]
- IOP (wild-type C57BL/6J mice; PBS-treated dexamethasone-injected eyes, week 6, n=8): 19.5±1.7 mmHg
- IOP (wild-type C57BL/6J mice; PBS-treated dexamethasone-injected eyes, week 9, n=8): 19.7±1.3 mmHg
- Increase in IOP vs vehicle-injected eyes (wild-type C57BL/6J mice; after 3 weekly conjunctival fornix injections, n=18): 18%
- IOP (wild-type C57BL/6J mice; dexamethasone-injected eyes, week 3, n=18): 19.7±1.8 mmHg
- IOP change vs PBS-treated vehicle-injected eyes (wild-type C57BL/6J mice; week 6, n=8): 25%
